Reference: patent publication US10023570B2 (Array BioPharma, Inc., priority 2015, dated 2018)
Where a name gives a salt, the structure may show the parent alone.

Target: human KDR protein in HEK-293 cells (Homo sapiens (Human), UniProt P35968)
Test: KDR Cell Assay (phospho-KDR in HEK-293 cells expressing inducible KDR)
Format: cell-based
Conditions: pKDR Cell HEK 10% FBS IC50, HEK-293 cells expressing inducible KDR, VEGF stimulated
Protocol: The cellular potency of a compound inhibiting KDR kinase was determined in HEK-293 cells expressing an inducible human KDR protein. […] The cells were incubated for 1 hour with test compound in DMEM at a final DMSO concentration of 0.25%. […] The media was aspirated and 35 μL of a 1× lysis buffer was added. […] The lysate was stored at −80° C. until ready for assay. Phospho-KDR was measured using a phospho-KDR kit (Catalog #K151BOC) purchased from Meso Scale Diagnostics (Rockville, Md.) according to the manufacturer's instructions. All values are expressed as percent of percent of control (POC). The POC values were fitted to a 4 parameter logistic curve fit and the IC50 value is point where the curve crosses 50 POC.

Sequence of human KDR protein in HEK-293 cells (P35968 20-1356): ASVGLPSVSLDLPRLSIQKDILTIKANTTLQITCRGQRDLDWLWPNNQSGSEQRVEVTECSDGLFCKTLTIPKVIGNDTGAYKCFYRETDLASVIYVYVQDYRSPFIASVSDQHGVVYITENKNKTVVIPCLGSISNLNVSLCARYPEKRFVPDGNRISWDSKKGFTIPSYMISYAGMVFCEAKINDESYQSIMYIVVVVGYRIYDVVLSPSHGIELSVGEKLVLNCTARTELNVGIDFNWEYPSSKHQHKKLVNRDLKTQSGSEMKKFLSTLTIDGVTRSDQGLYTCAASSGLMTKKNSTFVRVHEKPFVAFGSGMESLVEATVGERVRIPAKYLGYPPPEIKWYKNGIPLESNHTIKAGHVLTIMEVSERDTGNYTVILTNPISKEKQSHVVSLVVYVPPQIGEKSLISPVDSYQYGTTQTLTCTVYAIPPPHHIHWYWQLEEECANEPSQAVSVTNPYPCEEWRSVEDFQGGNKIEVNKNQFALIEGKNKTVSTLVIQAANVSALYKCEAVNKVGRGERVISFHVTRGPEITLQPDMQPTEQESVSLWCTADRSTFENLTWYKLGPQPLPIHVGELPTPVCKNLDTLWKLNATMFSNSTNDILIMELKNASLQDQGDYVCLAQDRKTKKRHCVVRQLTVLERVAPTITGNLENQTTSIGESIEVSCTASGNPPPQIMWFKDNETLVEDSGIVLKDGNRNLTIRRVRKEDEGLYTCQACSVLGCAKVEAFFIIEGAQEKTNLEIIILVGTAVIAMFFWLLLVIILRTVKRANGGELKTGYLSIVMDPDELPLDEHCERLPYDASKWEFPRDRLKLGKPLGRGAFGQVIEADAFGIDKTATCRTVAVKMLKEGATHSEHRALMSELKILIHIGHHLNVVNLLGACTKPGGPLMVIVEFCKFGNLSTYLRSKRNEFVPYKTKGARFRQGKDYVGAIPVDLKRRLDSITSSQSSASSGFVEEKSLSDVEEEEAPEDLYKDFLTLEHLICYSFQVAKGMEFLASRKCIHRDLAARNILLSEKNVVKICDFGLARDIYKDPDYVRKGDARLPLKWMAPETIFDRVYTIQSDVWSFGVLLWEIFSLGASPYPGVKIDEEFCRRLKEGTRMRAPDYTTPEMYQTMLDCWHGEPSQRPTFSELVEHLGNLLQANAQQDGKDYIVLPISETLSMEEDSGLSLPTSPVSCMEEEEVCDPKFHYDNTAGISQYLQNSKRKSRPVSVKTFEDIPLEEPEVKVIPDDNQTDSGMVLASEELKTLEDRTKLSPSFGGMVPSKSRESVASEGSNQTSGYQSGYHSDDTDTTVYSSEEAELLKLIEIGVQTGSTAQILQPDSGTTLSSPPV

Row | IC50 (10% FBS) | IC50 | Compound
1 | 354 nM | – | Cn1cc(-c2cc(-c3ccc(N4CCN(C(=O)N5CCC6(CC6)C5)CC4)nc3)c3c(C#N)cnn3c2)cn1 [Example 117, 4-(6-(4-(5-azaspiro[2.4]heptane-5-carbonyl)piperazin-1-yl)pyridin-3-yl)-6-(1-methyl-1H-pyrazol-4-yl)pyrazolo[1,5-a]pyridine-3-carbonitrile]
2 | 428 nM | – | CO[C@@H](C(=O)N1CCN(c2ccc(-c3cc(-c4cnn(C)c4)cn4ncc(C#N)c34)cn2)CC1)C(C)C [Example 86, (R)-4-(6-(4-(2-methoxy-3-methylbutanoyl)piperazin-1-yl)pyridin-3-yl)-6-(1-methyl-1H-pyrazol-4-yl)pyrazolo[1,5-a]pyridine-3-carbonitrile]
3 | – | 284 nM | Cn1cc(-c2cc(-c3ccc(N4CCC5(CC4)CCN5C(=O)OC(C)(C)C)nc3)c3c(C#N)cnn3c2)cn1 [Example 515, tert-butyl 7-(5-(3-cyano-6-(1-methyl-1H-pyrazol-4-yl)pyrazolo[1,5-a]pyridin-4-yl)pyridin-2-yl)-1,7-diazaspiro[3.5]nonane-1-carboxylate]
4 | 1150 nM | – | CN(C)C(=O)N1CCN(c2ccc(-c3cc(-c4cnn(C)c4)cn4ncc(C#N)c34)cn2)CC1 [Example 132, 4-(5-(3-cyano-6-(1-methyl-1H-pyrazol-4-yl)pyrazolo[1,5-a]pyridin-4-yl)pyridin-2-yl)-N,N-dimethylpiperazine-1-carboxamide]
5 | 4860 nM | – | Cn1cc(-c2cc(-c3ccc(N4CCN(C(=O)[C@H](O)c5cccc(Cl)c5)CC4)nc3)c3ccnn3c2)cn1 [Example 322, (R)-2-(3-chlorophenyl)-2-hydroxy-1-(4-(5-(6-(1-methyl-1H-pyrazol-4-yl)pyrazolo[1,5-a]pyridin-4-yl)pyridin-2-yl)piperazin-1-yl)ethanone]
6 | 1370 nM | – | Cn1cc(-c2cc(-c3ccc(N4CCN(C(=O)N[C@@H]5CCOC5)CC4)nc3)c3c(C#N)cnn3c2)cn1 [Example 106, (R)-4-(5-(3-cyano-6-(1-methyl-1H-pyrazol-4-yl)pyrazolo[1,5-a]pyridin-4-yl)pyridin-2-yl)-N-(tetrahydrofuran-3-yl)piperazine-1-carboxamide]
7 | 1710 nM | – | CC(C)[C@@H](O)C(=O)N1CCN(c2ncc(-c3cc(-c4cnn(C)c4)cn4ncc(C#N)c34)cn2)CC1 [Example 285, (R)-4-(2-(4-(2-hydroxy-3-methylbutanoyl)piperazin-1-yl)pyrimidin-5-yl)-6-(1-methyl-1H-pyrazol-4-yl)pyrazolo[1,5-a]pyridine-3-carbonitrile]
8 | – | 811 nM | Cn1cc(-c2cc(-c3ccc(N4CCN(C(=O)N5CCN6CCCC6C5)CC4)nc3)c3c(C#N)cnn3c2)cn1 (stereo not drawn) [Example 381, 6-(1-methyl-1H-pyrazol-4-yl)-4-(6-(4-(octahydropyrrolo[1,2-a]pyrazine-2-carbonyl)piperazin-1-yl)pyridin-3-yl)pyrazolo[1,5-a]pyridine-3-carbonitrile]
9 | – | 305 nM | COc1ccc(CN2CCN(c3ccc(-c4cc(-c5cnn(C)c5)cn5ncc(C#N)c45)cn3)CC2)cn1 [Example 474, 4-(6-(4-((6-methoxypyridin-3-yl)methyl)piperazin-1-yl)pyridin-3-yl)-6-(1-methyl-1H-pyrazol-4-yl)pyrazolo[1,5-a]pyridine-3-carbonitrile]
10 | 16.1 nM | – | Cn1cc(-c2cc(-c3ccc(N4CCN(S(=O)(=O)N5CCCC5)CC4)nc3)c3c(C#N)cnn3c2)cn1 [Example 138, 6-(1-methyl-1H-pyrazol-4-yl)-4-(6-(4-(pyrrolidin-1-ylsulfonyl)piperazin-1-yl)pyridin-3-yl)pyrazolo[1,5-a]pyridine-3-carbonitrile]
11 | 1140 nM | – | Cn1cc(-c2cc(-c3ccc(N4CCN(C(=O)N[C@H]5CCOC5)CC4)nc3)c3c(C#N)cnn3c2)cn1 [Example 105, (S)-4-(5-(3-cyano-6-(1-methyl-1H-pyrazol-4-yl)pyrazolo[1,5-a]pyridin-4-yl)pyridin-2-yl)-N-(tetrahydrofuran-3-yl)piperazine-1-carboxamide]
12 | – | 1840 nM | CCc1cnn2cc(-c3cnn(C)c3)cc(-c3ccc(N4CCN(C(=O)[C@H](O)c5ccccc5)CC4)nc3)c12 [Example 658, (R)-1-(4-(5-(3-ethyl-6-(1-methyl-1H-pyrazol-4-yl)pyrazolo[1,5-a]pyridin-4-yl)pyridin-2-yl)piperazin-1-yl)-2-hydroxy-2-phenylethanone]
13 | – | 1330 nM | Cc1c(CN2CCN(c3ccc(-c4cc(-c5cnn(C)c5)cn5ncc(C#N)c45)cn3)CC2)cnn1C [Example 435, 4-(6-(4-((1,5-dimethyl-1H-pyrazol-4-yl)methyl)piperazin-1-yl)pyridin-3-yl)-6-(1-methyl-1H-pyrazol-4-yl)pyrazolo[1,5-a]pyridine-3-carbonitrile]
14 | – | 1680 nM | CO[C@H]1CCN(C(=O)N2CCN(c3ccc(-c4cc(-c5cnn(C)c5)cn5ncc(Cl)c45)cn3)CC2)C1 [Example 645, (S)-(4-(5-(3-chloro-6-(1-methyl-1H-pyrazol-4-yl)pyrazolo[1,5-a]pyridin-4-yl)pyridin-2-yl)piperazin-1-yl)(3-methoxypyrrolidin-1-yl)methanone]
15 | 2270 nM | – | Cn1cc(-c2cc(-c3ccc(N4CCN(C(=O)N5CCCC(F)C5)CC4)nc3)c3c(C#N)cnn3c2)cn1 (stereo not drawn) [Example 116, 4-(6-(4-(3-fluoropiperidine-1-carbonyl)piperazin-1-yl)pyridin-3-yl)-6-(1-methyl-1H-pyrazol-4-yl)pyrazolo[1,5-a]pyridine-3-carbonitrile]
16 | – | 1720 nM | Cn1cc(CN2CCN(c3ccc(-c4cc(-c5cnn(C)c5)cn5ncc(C#N)c45)cn3)CC2)cn1 [Example 448, 6-(1-methyl-1H-pyrazol-4-yl)-4-(6-(4-((1-methyl-1H-pyrazol-4-yl)methyl)piperazin-1-yl)pyridin-3-yl)pyrazolo[1,5-a]pyridine-3-carbonitrile]
17 | – | 305 nM | CC(C)N1CC(n2cc(-c3cc(-c4ccc(N5CCN(Cc6ccccc6)CC5)nc4)c4c(C#N)cnn4c3)cn2)C1 [Example 596, 4-(6-(4-benzylpiperazin-1-yl)pyridin-3-yl)-6-(1-(1-isopropylazetidin-3-yl)-1H-pyrazol-4-yl)pyrazolo[1,5-a]pyridine-3-carbonitrile]
18 | – | 563 nM | Cn1cc(-c2cc(-c3ccc(N4CCC5(CC4)CN(C(=O)C4CC4)C5)nc3)c3c(C#N)cnn3c2)cn1 [Example 492, 4-(6-(2-(cyclopropanecarbonyl)-2,7-diazaspiro[3.5]nonan-7-yl)pyridin-3-yl)-6-(1-methyl-1H-pyrazol-4-yl)pyrazolo[1,5-a]pyridine-3-carbonitrile]
19 | – | 2160 nM | Cn1cc(-c2cc(-c3ccc(N4CCN(CC5CCOCC5)CC4)nc3)c3c(C#N)cnn3c2)cn1 [Example 466, 6-(1-methyl-1H-pyrazol-4-yl)-4-(6-(4-((tetrahydro-2H-pyran-4-yl)methyl)piperazin-l-yl)pyridin-3-yl)pyrazolo[1,5-a]pyridine-3-carbonitrile]
20 | – | 9.2 nM | Cn1cc(-c2cc(-c3ccc(N4CCC(Oc5ccc(Cl)cc5)CC4)nc3)c3c(C#N)cnn3c2)cn1 [Example 509, 4-(6-(4-(4-chlorophenoxy)piperidin-1-yl)pyridin-3-yl)-6-(1-methyl-1H-pyrazol-4-yl)pyrazolo[1,5-a]pyridine-3-carbonitrile]
21 | 503 nM | – | Cn1cc(-c2cc(-c3ccc(N4CCN(C(=O)Cc5cccnc5)CC4)nc3)c3c(C#N)cnn3c2)cn1 [Example 71, 6-(1-methyl-1H-pyrazol-4-yl)-4-(6-(4-(2-(pyridin-3-yl)acetyl)piperazin-1-yl)pyridin-3-yl)pyrazolo[1,5-a]pyridine-3-carbonitrile]
22 | 117 nM | – | Cn1cc(-c2cc(-c3ccc(N4CCN(C(=O)c5ccccc5)CC4)nc3)c3c(C#N)cnn3c2)cn1 [Example 69, 4-(6-(4-benzoylpiperazin-1-yl)pyridin-3-yl)-6-(1-methyl-1H-pyrazol-4-yl)pyrazolo[1,5-a]pyridine-3-carbonitrile]
23 | 4780 nM | – | Cn1ccc(-c2cc(-c3ccc(N4CCN(C(=O)CC(C)(C)C)CC4)cc3)c3c(C#N)cnn3c2)n1 [Example 309, 4-(4-(4-(3,3-dimethylbutanoyl)piperazin-1-yl)phenyl)-6-(1-methyl-1H-pyrazol-3-yl)pyrazolo[1,5-a]pyridine-3-carbonitrile]
24 | – | 1250 nM | Cn1cc(-c2cc(-c3ccc(N4CCC5(CCN(C(=O)OC(C)(C)C)C5)C4)nc3)c3c(C#N)cnn3c2)cn1 (stereo not drawn) [Example 519, tert-butyl 7-(5-(3-cyano-6-(1-methyl-1H-pyrazol-4-yl)pyrazolo[1,5-a]pyridin-4-yl)pyridin-2-yl)-2,7-diazaspiro[4.4]nonane-2-carboxylate]

Row | Compound | IC50 (10% FBS) | IC50
25 | Cn1cc(-c2cc(-c3ccc(N4CC5CCC(C4)N5C(=O)OC(C)(C)C)nc3)c3c(C#N)cnn3c2)cn1 [Example 173, tert-butyl 3-(5-(3-cyano-6-(1-methyl-1H-pyrazol-4-yl)pyrazolo[1,5-a]pyridin-4-yl)pyridin-2-yl)-3,8-diazabicyclo[3.2.1]octane-8-carboxylate] | 1270 nM | –
26 | Cn1cc(-c2cc(-c3ccc(N4[C@@H]5CC[C@H]4C[C@@H](N)C5)nc3)c3c(C#N)cnn3c2)cn1 [Example 195, 4-(6-((1R,3r,5S)-3-amino-8-azabicyclo[3.2.1]octan-8-yl)pyridin-3-yl)-6-(1-methyl-1H-pyrazol-4-yl)pyrazolo[1,5-a]pyridine-3-carbonitrile dihydrochloride] | 247 nM | –
27 | CCCc1onc(C)c1C(=O)N1CCN(c2ccc(-c3cc(-c4cnn(C)c4)cn4ncc(C#N)c34)cn2)CC1 [Example 367, 4-yl)-4-(6-(4-(3-methyl-5-6-(1-methyl-1H-pyrazol-propylisoxazole-4-carbonyl)piperazin-1-yl)pyridin-3-yl)pyrazolo[1,5-a]pyridine-3-carbonitrile 2,2,2-trifluoroacetate] | 355 nM | –
